Assay results as given in patent publication US4740233A, “Substituted 1,2,4-triazolo[1,5-a]-pyrimidine-2-sulfonamides and compositions and methods of controlling undesired vegetation and suppressing the nitrification of ammonium nitrogen in soil” (The Dow Chemical Company, priority 1986, dated 1988).

Legend:
Test in all cases: Preemergent control of plant species
yellow nutsedge = assay type: in vivo, Cyperus esculentus; details: Cyperus, pre-emergence, 336 h; 0.25 lb/acre; read-out: percent preemergent control
How it was run: (§1)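 Seeds sown in agricultural soil beds in a greenhouse received aqueous emulsions of test compositions applied uniformly over the bed surface at the listed rates; water-treated beds served as control. After two weeks under greenhouse growth conditions, control was scored as growth reduction versus untreated plants of the same species.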

soybean = assay type: in vivo, Glycine max.; details: Glycine max, pre-emergence, 336 h; 0.25 lb/acre; read-out: percent preemergent control
How it was run: as §1

johnson grass = assay type: in vivo, Sorghum halepense; details: Sorghum halepense, pre-emergence, 336 h; 0.25 lb/acre; read-out: percent preemergent control
How it was run: as §1

sugar beet = assay type: in vivo, Beta saccharifera; details: Beta vulgaris, pre-emergence, 336 h; 0.25 lb/acre; read-out: percent preemergent control
How it was run: as §1

annual morning glory = assay type: in vivo, Ipomoea spp.; details: Ipomoea, pre-emergence, 336 h; 0.25 lb/acre; read-out: percent preemergent control
How it was run: as §1

wild oats = assay type: in vivo; details: Avena fatua, pre-emergence, 336 h; 0.25 lb/acre; read-out: percent preemergent control
Method: The seeds of various species of plants were planted in beds of good agricultural soil in a greenhouse. A number of compositions of the present invention, generally in the nature of an aqueous emulsion, were applied at rates listed in the table so as to deposit a predetermined amount of active ingredients uniformly throughout the surface of the bed. Another seed bed was treated only with water to serve as a control. After treatment the seed beds were maintained for two weeks under greenhouse conditions conducive for good plant growth and watered as necessary. Control refers to the reduction in growth compared to the observed results of the same untreated species.

yellow foxtail = assay type: in vivo, Setaria lutescens; details: Setaria, pre-emergence, 336 h; 0.25 lb/acre; read-out: percent preemergent control
How it was run: as §1

rice = assay type: in vivo, Oryza sativa; details: Oryza sativa, pre-emergence, 336 h; 0.25 lb/acre; read-out: percent preemergent control
How it was run: as §1

corn = assay type: in vivo, Zea mays; details: Zea mays, pre-emergence, 336 h; 0.25 lb/acre; read-out: percent preemergent control
How it was run: as §1

barnyardgrass = assay type: in vivo, Echinochloa crusgalli; details: Echinochloa crus-galli, pre-emergence, 336 h; 0.25 lb/acre; read-out: percent preemergent control
How it was run: as §1

cotton = assay type: in vivo, Gossypium spp.; details: Gossypium hirsutum, pre-emergence, 336 h; 0.25 lb/acre; read-out: percent preemergent control
How it was run: as §1

rape = assay type: in vivo, Brassica napus; details: Brassica napus, pre-emergence, 336 h; 0.25 lb/acre; read-out: percent preemergent control
How it was run: as §1

velvetleaf = assay type: in vivo, Abutilon theophrasti; details: Abutilon theophrasti, pre-emergence, 336 h; 0.25 lb/acre; read-out: percent preemergent control
How it was run: as §1

sorghum = assay type: in vivo, Sorghum vulgare; details: Sorghum, pre-emergence, 336 h; 0.25 lb/acre; read-out: percent preemergent control
How it was run: as §1

wheat = assay type: in vivo, Triticum aestivum; details: Triticum aestivum, pre-emergence, 336 h; 0.25 lb/acre; read-out: percent preemergent control
How it was run: as §1

jimsonweed = assay type: in vivo, Datura stramonium; details: Datura stramonium, pre-emergence, 336 h; 0.25 lb/acre; read-out: percent preemergent control
How it was run: as §1

Structure (SMILES): Cc1ccnc2nc(S(=O)(=O)Nc3c(F)cccc3Cl)nn12 [Compound 181]
- pest or weed control at 280.212 g/ha (yellow nutsedge): 50%
- plant injury at 280.212 g/ha (soybean): 80%
- pest or weed control at 280.212 g/ha (johnson grass): 60%
- plant injury at 280.212 g/ha (sugar beet): 98%
- pest or weed control at 280.212 g/ha (annual morning glory): 80%
- pest or weed control at 280.212 g/ha (wild oats): 40%
- pest or weed control at 280.212 g/ha (yellow foxtail): 80%
- plant injury at 280.212 g/ha (rice): 30%
- plant injury at 280.212 g/ha (corn): 0%
- pest or weed control at 280.212 g/ha (barnyardgrass): 20%
- plant injury at 280.212 g/ha (cotton): 98%
- plant injury at 280.212 g/ha (rape): 100%
- pest or weed control at 280.212 g/ha (velvetleaf): 98%
- plant injury at 280.212 g/ha (sorghum): 95%
- plant injury at 280.212 g/ha (wheat): 0%
- pest or weed control at 280.212 g/ha (jimsonweed): 98%

Structure (SMILES): Cc1cccc([N+](=O)[O-])c1NS(=O)(=O)c1nc2nccc(C)n2n1 [Compound 184]
- pest or weed control at 280.212 g/ha (yellow nutsedge): 80%
- plant injury at 280.212 g/ha (soybean): 50%
- pest or weed control at 280.212 g/ha (johnson grass): 30%
- plant injury at 280.212 g/ha (sugar beet): 100%
- pest or weed control at 280.212 g/ha (annual morning glory): 80%
- pest or weed control at 280.212 g/ha (wild oats): 0%
- pest or weed control at 280.212 g/ha (yellow foxtail): 80%
- plant injury at 280.212 g/ha (rice): 0%
- plant injury at 280.212 g/ha (corn): 0%
- pest or weed control at 280.212 g/ha (barnyardgrass): 0%
- plant injury at 280.212 g/ha (cotton): 100%
- plant injury at 280.212 g/ha (rape): 98%
- pest or weed control at 280.212 g/ha (velvetleaf): 100%
- plant injury at 280.212 g/ha (sorghum): 95%
- plant injury at 280.212 g/ha (wheat): 0%
- pest or weed control at 280.212 g/ha (jimsonweed): 98%

Structure (SMILES): Cc1ccnc2nc(S(=O)(=O)Nc3c(F)cccc3F)nn12 [Compound 185]
- pest or weed control at 280.212 g/ha (yellow nutsedge): 0%
- plant injury at 280.212 g/ha (soybean): 70%
- pest or weed control at 280.212 g/ha (johnson grass): 90%
- plant injury at 280.212 g/ha (sugar beet): 98%
- pest or weed control at 280.212 g/ha (annual morning glory): 80%
- pest or weed control at 280.212 g/ha (wild oats): 0%
- plant injury at 280.212 g/ha (rice): 20%
- plant injury at 280.212 g/ha (corn): 0%
- pest or weed control at 280.212 g/ha (barnyardgrass): 20%
- plant injury at 280.212 g/ha (cotton): 98%
- plant injury at 280.212 g/ha (rape): 100%
- pest or weed control at 280.212 g/ha (velvetleaf): 100%
- plant injury at 280.212 g/ha (sorghum): 90%
- plant injury at 280.212 g/ha (wheat): 0%
- pest or weed control at 280.212 g/ha (jimsonweed): 90%

Structure (SMILES): Cc1cnc2nc(S(=O)(=O)Nc3c(Cl)ccc(C)c3Cl)nn2c1 [Compound 194]
- pest or weed control at 280.212 g/ha (yellow nutsedge): 95%
- plant injury at 280.212 g/ha (soybean): 70%
- pest or weed control at 280.212 g/ha (johnson grass): 0%
- plant injury at 280.212 g/ha (sugar beet): 100%
- pest or weed control at 280.212 g/ha (annual morning glory): 90%
- pest or weed control at 280.212 g/ha (wild oats): 0%
- pest or weed control at 280.212 g/ha (yellow foxtail): 0%
- plant injury at 280.212 g/ha (rice): 0%
- plant injury at 280.212 g/ha (corn): 0%
- pest or weed control at 280.212 g/ha (barnyardgrass): 0%
- plant injury at 280.212 g/ha (cotton): 90%
- plant injury at 280.212 g/ha (rape): 100%
- pest or weed control at 280.212 g/ha (velvetleaf): 90%
- plant injury at 280.212 g/ha (sorghum): 30%
- plant injury at 280.212 g/ha (wheat): 0%
- pest or weed control at 280.212 g/ha (jimsonweed): 95%

Structure (SMILES): Cc1ccn2nc(S(=O)(=O)N(C(=O)C3CC3)c3c(F)cccc3F)nc2n1 [Compound 289]
- pest or weed control at 280.212 g/ha (yellow nutsedge): 100%
- plant injury at 280.212 g/ha (soybean): 50%
- pest or weed control at 280.212 g/ha (johnson grass): 100%
- plant injury at 280.212 g/ha (sugar beet): 100%
- pest or weed control at 280.212 g/ha (annual morning glory): 100%
- pest or weed control at 280.212 g/ha (wild oats): 100%
- pest or weed control at 280.212 g/ha (yellow foxtail): 100%
- plant injury at 280.212 g/ha (corn): 95%
- pest or weed control at 280.212 g/ha (barnyardgrass): 100%
- plant injury at 280.212 g/ha (cotton): 100%
- plant injury at 280.212 g/ha (rape): 100%
- pest or weed control at 280.212 g/ha (velvetleaf): 100%
- plant injury at 280.212 g/ha (sorghum): 100%
- plant injury at 280.212 g/ha (wheat): 80%
- pest or weed control at 280.212 g/ha (jimsonweed): 100%
